For one data set, the target named is T1, rat liver FBPase (Rattus norvegicus, UniProt P19112).
T1 construct: This partially purified fraction was used for enzyme assays; from tissue; host or cells: rat liver (45-75% ammonium sulfate fraction of the homogenate)
T1 sequence (P19112 2-363 limits assumed): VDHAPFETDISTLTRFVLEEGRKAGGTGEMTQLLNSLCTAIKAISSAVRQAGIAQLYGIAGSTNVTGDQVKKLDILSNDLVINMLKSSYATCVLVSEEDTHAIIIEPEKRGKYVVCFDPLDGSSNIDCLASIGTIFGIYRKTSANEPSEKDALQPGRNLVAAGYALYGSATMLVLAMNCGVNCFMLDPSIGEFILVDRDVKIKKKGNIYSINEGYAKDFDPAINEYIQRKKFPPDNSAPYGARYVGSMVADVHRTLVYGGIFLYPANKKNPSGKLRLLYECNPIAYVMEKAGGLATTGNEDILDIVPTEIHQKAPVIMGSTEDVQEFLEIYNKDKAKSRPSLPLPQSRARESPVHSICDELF
Kind of data set: Inhibition of rat liver FBPase. The note with it: partially purified rat liver FBPase; read-out: IC50 (rlFBPase). The data set is classed as biochemical. On the procedure:
Rat liver FBPase was obtained by homogenizing freshly isolated rat liver in 100 mM Tris-HCl buffer, pH 7.4, containing 1 mM EGTA, and 10% glycerol. The homogenate was clarified by centrifugation, and the 45-75% ammonium sulfate fraction prepared. This fraction was redissolved in the homogenization buffer and desalted on a PD-10 gel filtration column (Biorad) eluted with same. This partially purified fraction was used for enzyme assays.

The target in data set [1] is T2, human NAT2 (Homo sapiens, UniProt P11245).
T2 sequence (P11245 1-290): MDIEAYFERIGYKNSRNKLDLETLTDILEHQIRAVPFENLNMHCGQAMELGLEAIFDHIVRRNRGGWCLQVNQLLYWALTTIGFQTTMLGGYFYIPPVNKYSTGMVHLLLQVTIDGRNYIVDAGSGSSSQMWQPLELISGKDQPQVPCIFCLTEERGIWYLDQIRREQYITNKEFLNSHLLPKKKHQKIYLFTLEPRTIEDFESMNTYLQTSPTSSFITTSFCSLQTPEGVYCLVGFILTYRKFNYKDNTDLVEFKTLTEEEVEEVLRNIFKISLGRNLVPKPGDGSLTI
The note with it: human, 120 min, 100 μM, pH 7.4.
Description: (§1) Insect cell-expressed human NAT1 and NAT2 and control insect cytosol were obtained from BD Gentest (Bedford, Mass.). Compounds (100 μM) were incubated in 0.25 mL of NAT reaction cocktail consisting of 25 mM potassium phosphate pH 7.4 (at 25° C.), 1 mM EDTA, 1 mM DTT, 0.5 mM acetyl CoA, 5 mM acetyl-DL-carnitine, 20 u/mL acetyltransferase and either NAT1, NAT2 or control insect cytosol (0.1 mg/mL). Reactions were performed in an Eppendorf Thermomixer (37° C., 120 min.). At 0 and 120 min., 100 μl of each reaction was removed and added to a clean 1.7 mL tube containing 150 μl of 100% methanol. The tubes were vortexed and centrifuged at 14,000 rpm for 10 min. in an Eppendorf microcentrifuge (room temperature, 5 min., 14,000 rpm). The supernatants were analyzed by HPLC (Agilent 1100 series) using a Phenosphere C18 column (5 micron, 150×4.6 mm). The column was equilibrated with 20 mM potassium phosphate pH 4.5 or pH 6.2 (at 25° C.) and eluted with a linear gradient to 80% acetonitrile. The percent conversion of the compounds was calculated from the following equation: area of N-acyl product divided by (area of compound+area of N-acyl product), multiplied by 100.

The target in a further data set is T3, human NAT1 (Homo sapiens, UniProt P18440).
T3 construct: purchased BD Gentest (Bedford, Mass.); host or cells: insect cells
T3 sequence (P18440 1-290): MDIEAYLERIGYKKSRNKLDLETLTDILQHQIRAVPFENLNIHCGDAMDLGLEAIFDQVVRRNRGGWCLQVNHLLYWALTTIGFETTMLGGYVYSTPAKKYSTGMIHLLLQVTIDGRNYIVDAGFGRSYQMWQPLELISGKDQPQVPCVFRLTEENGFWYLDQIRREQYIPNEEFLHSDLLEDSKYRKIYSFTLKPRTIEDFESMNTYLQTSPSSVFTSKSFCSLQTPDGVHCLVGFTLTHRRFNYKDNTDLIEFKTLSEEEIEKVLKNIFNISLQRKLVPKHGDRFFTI
Kind of data set: N-acetylation by recombinant human NAT1. In kind it is in vitro ADME. To be noted: for % Conversion NAT1: compound 100 μM, 37° C., 120 min, N-acyl product by HPLC; for susceptibility to N-acetylation by NAT1, in words: human recombinant NAT1.

Data set [2] in a line: Variability of N-acetylation in human liver S9 fractions. The data set is classed as in vitro ADME. To be noted: 100 μM, S9 10 mg/mL protein; donors with high or low N-acetylase activity. On the procedure:
The reactions are incubated, processed, and analyzed as described in Example C.

Another data set concerns the target T4, human liver FBPase (Homo sapiens, UniProt P09467).
T4 construct: made in house; host or cells: E. coli BL21
T4 sequence (P09467 2-338 limits assumed): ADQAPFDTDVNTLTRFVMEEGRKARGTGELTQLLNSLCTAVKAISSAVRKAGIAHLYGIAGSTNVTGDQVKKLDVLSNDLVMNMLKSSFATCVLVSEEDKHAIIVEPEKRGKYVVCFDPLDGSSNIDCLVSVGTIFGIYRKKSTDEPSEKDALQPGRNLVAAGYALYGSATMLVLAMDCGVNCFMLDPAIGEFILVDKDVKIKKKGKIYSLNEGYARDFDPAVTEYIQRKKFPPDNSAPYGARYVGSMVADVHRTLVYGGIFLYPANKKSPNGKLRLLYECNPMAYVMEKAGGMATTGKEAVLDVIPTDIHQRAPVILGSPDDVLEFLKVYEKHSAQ
Kind of data set: Inhibition of human liver FBPase. In kind it is biochemical. To be noted: purified recombinant human liver FBPase, 0.150 mM fructose 1,6-bisphosphate, 37° C.; read-out: IC50 (hlFBPase). On the procedure: E. coli strain BL21 transformed with a human liver FBPase-encoding plasmid was obtained from Dr. M. R. El-Maghrabi at the State University of New York at Stony Brook. […] Enzymatic activity was measured spectrophotometrically in reactions that coupled the formation of product (fructose 6-phosphate) to the reduction of dimethylthiazoldiphenyltetrazolium bromide (MTT) via NADP^+ and phenazine methosulfate (PMS), using phosphoglucose isomerase and glucose 6-phosphate dehydrogenase as the coupling enzymes. Reaction mixtures (200 μl) were made up in 96-well microtitre plates, and consisted of 50 mM Tris-HCl, pH 7.4, 100 mM KCl, 5 mM EGTA, 2 mM MgCl2, 0.2 mM NADP, 1 mg/ml BSA, 1 mM MTT, 0.6 mM PMS, 1 unit/ml phosphoglucose isomerase, 2 units/ml glucose 6-phosphate dehydrogenase, and 0.150 mM substrate (fructose 1,6-bisphosphate). Inhibitor concentrations were varied from 0.01 μM to 10 μM. Reactions were started by the addition of 0.002 units of pure hlFBPase, and were monitored for 7 min. at 590 nm in a Molecular Devices Plate Reader (37° C.).

Data set [3] addresses T2, human NAT2. Kind of data set: N-acetylation by recombinant human NAT2.
Description: as §1

“Also recorded” adds a separate entry of the source. Where two headings read alike, the source gives them in different places.

Description for human NAT1: as §1

For orientation: IC50 means the concentration that gives 50% inhibition. Regarding `CC(C)Cc1sc(N)nc1-c1ccc(P(=O)(O)O)o1` [Compound 3.6, reference compound], the IC50 at rat liver FBPase was determined as 140 nM. Also, the “% Conversion NAT2” value at human NAT2 [1] was 5.9%. For the same compound, at human NAT1, the “% Conversion NAT1” value was 51% and the “susceptibility to N-acetylation by NAT1, in words” value (“susceptibility … by NAT1, in words” for short) is reported as “highly susceptible”. Further, the “conversion to N-acetylated metabolite in human liver S9 from various donors” value in data set [2] is “high levels”.
In the case of `CC(C)(C)C(=O)c1sc(N)nc1-c1ccc(P(=O)(O)O)o1` [Compound 1.1, {5-[2-amino-5-(2,2-dimethylpropionyl)thiazol-4-yl]-furan-2-yl}phosphonic acid], the IC50 on human liver FBPase stood at 31 nM. Further, the IC50 on rat liver FBPase came out at 189 nM. Also, at human NAT1, the “% Conversion NAT1” value was 0% and the “susceptibility … by NAT1, in words” value is “not metabolized; also recorded: insusceptible”. Moreover, the “conversion to N-acetylated metabolite in human liver S9 from various donors” value in data set [2] is reported as “no conversion”. In addition, on human NAT2 [3] (compound 100 μM, 37° C., 120 min, N-acyl product by HPLC), the “% Conversion NAT2” value was determined as 0%. Moreover, the “susceptibility to N-acetylation by NAT2, in words” value at human NAT2 [3] (human recombinant NAT2) is listed as “insusceptible”.
On to `CC(C)(C)Cc1sc(N)nc1-c1ccc(P(=O)(O)O)o1` [Compound 3.1, reference compound], for which the IC50 on human liver FBPase came to 12 nM. The IC50 at rat liver FBPase came to 92 nM. For the same compound, on human NAT1, the “% Conversion NAT1” value is reported as 22.4% and the “susceptibility … by NAT1, in words” value is “highly susceptible”.

The values are drawn from patent publication US20080070868A1, “Novel Thiazole Inhibitors of Fructose 1,6-bisphosphatase” (Metabasis Therapeutics, Inc., priority 2004, published 2008).
